Reference: US20210387966A1, “2-AMINO-N-HETEROARYL-NICOTINAMIDES AS NAV1.8 INHIBITORS” (Merck Sharp & Dohme Corp., priority 2018, published 2021)

The molecules below were run against T1, human Nav1.8 channels (Homo sapiens, UniProt Q9Y5Y9) (assay: Nav1.8 Qube automated patch-clamp assay). Conditions: human Nav1.8 stably expressed in HEK 293 cells; whole-cell voltage clamp, room temperature; resting or inactivated state not specified; read-out: IC50 values (nM) for Examples in the Nav1.8 Qube Assay.
T1 construct: expressed in transfected cells
Type: cell-based
Experimental: Compounds were tested on human Nav1.8 and Nav1.5 channels stably expressed in human embryo kidney (HEK) 293 cells. Sodium current measurements on Qube® were conducted as follows: automated 384-well patch-clamp assays on the Qube® platform (Sophion Biosciences) were used to measure the inhibition of sodium flow through human Nav1.8 and Nav1.5 channels. Whole-cell voltage-clamp recordings were performed in QChips® (Sophion Biosciences) at room temperature. Nav1.8 current measurements on Qube® were obtained as follows: Nav1.8 currents were elicited with a 10 second 1 Hertz (Hz) pulse train from a holding potential of −90 millivolts (mV), delivered to the cells once per minute in the control condition (DMSO only) and after compound addition. The 1 hertz pulse train stimulation consisted of ten test pulses to 10 millivolt (mV) for 20 milliseconds (ms), each of which was followed by a 980 millisecond repolarization to −67 millivolts. At the end of the 10 second pulse train stimulation, a second hyperpolarization step to −100 millivolt (mV) was used to recover Nav1.8 from fast inactivation. The peak currents elicited by the 1st and 10th test pulses were used to determine IC50 values for resting inhibition and inactivated state inhibition. Nav1.5 current measurements on Qube® were obtained as follows: Nav1.5 currents were elicited with a 20 second 3 Hertz pulse train in the control condition (DMSO only) and after compound addition. The pulse train consisted of sixty 20 millisecond test pulses to 0 millivolt from a holding potential of −80 millivolt (mV). The average peak currents elicited by the last 3 test pulses were used to determine IC50 values for Nav1.5 inhibition.
The following buffers were used for the Qube® recordings: External buffer for Nav1.8 Qube® recording: 150 NaCl, 2 CaCl2, 5 KCl, 1 Mg Cl2, 10 HEPES, 12 Dextrose; External buffer for Qube® Nav1.5 recording: 120 N-Methyl-D-Glucamine, 40 NaCl, 1 KCl, 2.7 CaCl2, 5 HEPES, 0.5 MgCl2: and Internal buffer for Qube® recording: 120 CsF, 30 CsCl, 10 EGTA, 5 HEPES, 5 NaF, 2 MgCl2.
For all Qube® experiments offline analysis was used to determine percent inhibition as a function of drug concentration. IC50 values were determined by fitting to the Hill equation.

T1 sequence (Q9Y5Y9 whole entry): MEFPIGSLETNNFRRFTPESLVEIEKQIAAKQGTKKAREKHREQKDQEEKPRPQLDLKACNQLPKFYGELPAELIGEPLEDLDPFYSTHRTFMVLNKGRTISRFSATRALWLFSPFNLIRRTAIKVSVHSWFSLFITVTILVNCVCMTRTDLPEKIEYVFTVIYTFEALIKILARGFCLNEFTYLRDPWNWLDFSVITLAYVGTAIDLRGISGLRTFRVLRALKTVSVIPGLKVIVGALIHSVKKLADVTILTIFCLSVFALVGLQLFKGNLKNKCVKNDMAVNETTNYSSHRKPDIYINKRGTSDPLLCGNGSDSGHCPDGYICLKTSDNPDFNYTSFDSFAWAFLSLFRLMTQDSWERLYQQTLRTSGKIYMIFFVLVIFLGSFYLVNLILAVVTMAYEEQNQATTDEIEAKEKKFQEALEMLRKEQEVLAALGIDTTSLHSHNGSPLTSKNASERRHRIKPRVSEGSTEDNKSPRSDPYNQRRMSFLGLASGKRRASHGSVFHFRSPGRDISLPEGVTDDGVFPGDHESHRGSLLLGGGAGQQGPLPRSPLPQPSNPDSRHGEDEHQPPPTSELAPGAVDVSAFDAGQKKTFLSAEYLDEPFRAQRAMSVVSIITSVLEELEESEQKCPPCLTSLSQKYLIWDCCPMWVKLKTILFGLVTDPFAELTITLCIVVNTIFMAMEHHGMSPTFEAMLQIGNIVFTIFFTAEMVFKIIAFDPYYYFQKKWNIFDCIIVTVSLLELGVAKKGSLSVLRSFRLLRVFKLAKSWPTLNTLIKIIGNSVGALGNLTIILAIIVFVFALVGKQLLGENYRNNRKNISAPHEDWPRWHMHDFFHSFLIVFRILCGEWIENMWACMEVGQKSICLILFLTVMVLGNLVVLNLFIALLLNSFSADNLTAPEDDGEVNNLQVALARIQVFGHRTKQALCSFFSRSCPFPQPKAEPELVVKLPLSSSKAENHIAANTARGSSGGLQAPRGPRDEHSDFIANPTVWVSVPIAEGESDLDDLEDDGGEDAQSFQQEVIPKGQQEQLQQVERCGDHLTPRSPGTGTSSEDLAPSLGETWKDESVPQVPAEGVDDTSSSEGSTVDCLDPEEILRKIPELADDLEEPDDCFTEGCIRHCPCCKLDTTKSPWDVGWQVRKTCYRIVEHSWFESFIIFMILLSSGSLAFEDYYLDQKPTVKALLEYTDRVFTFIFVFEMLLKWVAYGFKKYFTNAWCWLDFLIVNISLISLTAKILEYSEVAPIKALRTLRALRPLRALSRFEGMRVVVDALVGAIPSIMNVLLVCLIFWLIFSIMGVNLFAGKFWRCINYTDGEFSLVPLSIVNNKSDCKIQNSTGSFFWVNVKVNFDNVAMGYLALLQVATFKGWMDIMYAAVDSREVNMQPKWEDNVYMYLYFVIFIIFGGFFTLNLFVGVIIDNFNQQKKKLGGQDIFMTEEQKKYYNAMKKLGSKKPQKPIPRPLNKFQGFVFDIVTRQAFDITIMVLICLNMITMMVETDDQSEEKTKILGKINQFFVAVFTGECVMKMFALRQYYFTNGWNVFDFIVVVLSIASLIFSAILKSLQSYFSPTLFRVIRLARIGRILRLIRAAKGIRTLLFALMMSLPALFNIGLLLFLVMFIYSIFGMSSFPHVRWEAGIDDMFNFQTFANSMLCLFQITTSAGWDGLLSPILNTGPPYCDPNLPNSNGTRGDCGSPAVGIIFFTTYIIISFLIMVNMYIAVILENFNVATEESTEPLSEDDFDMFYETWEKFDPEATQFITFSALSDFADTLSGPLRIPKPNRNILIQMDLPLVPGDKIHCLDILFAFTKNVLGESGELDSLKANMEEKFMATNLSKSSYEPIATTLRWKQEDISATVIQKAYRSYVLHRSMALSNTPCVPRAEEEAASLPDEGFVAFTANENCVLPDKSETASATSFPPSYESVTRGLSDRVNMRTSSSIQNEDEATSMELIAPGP

Q: For `N#CC1CCN(c2ncc(C(F)(F)F)cc2C(=O)Nc2ccnc(S(N)(=O)=O)c2)C1` (single isomer, unassigned) [Example 130, (R or S)-2-(3-cyanopyrrolidin-1-yl)-N-(2-sulfamoylpyridin-4-yl)-5-(trifluoromethyl)nicotinamide], which IC50 is on record?
A: 3880 nM

Q: With `Cc1cncc(NC(=O)c2cc(C(F)(F)F)cnc2N2CCCCCC2)c1` [Example 195, 2-(azepan-1-yl)-N-(5-methyl-3-pyridyl)-5-(tri-fluoromethyl)-pyridine-3-carboxamide] as the molecule, how does the IC50 read?
A: 2770 nM

Q: Which IC50 does the source give for `CC1CN(c2nc(C(F)(F)F)c(Cl)cc2C(=O)Nc2ccnc(S(N)(=O)=O)c2)CCC1(F)F` (single isomer, unassigned) [Example 165, (R or S)-5-chloro-2-(4,4-difluoro-3-methylpiperidin-1-yl)-N-(2-sulfamoylpyridin-4-yl)-6-(trifluoromethyl)nicotinamide] here?
A: 2.1 nM

Q: With `CC1CCN(c2ncc(C(F)(F)F)cc2C(=O)Nc2ccnc(S(N)(=O)=O)c2)CCC1(F)F` (centres unmarked) [Example 115, 2-(4,4-difluoro-5-methylazepan-1-yl)-N-(2-sulfamoylpyridin-4-yl)-5-(trifluoromethyl)pyridine-3-carboxamide] as the molecule, how does the IC50 read?
A: 1.6 nM

Q: For `Cc1ncc(C(=O)Nc2ccnc(S(N)(=O)=O)c2)c(N2CCCC(F)(F)CC2)n1` [Example 173, 4-(4,4-difluoroazepan-1-yl)-2-methyl-N-(2-sulfamoylpyridin-4-yl)pyrimidine-5-carboxamide], which IC50 is on record?
A: 199 nM

Q: `Cc1nc(N2CCCC(F)(F)CC2)c(C(=O)Nc2cnn(S(=O)(=O)CCN)c2)cc1Cl` [Example 33, N-{1-[(2-aminoethyl)sulfonyl]-1H-pyrazol-4-yl}-5-chloro-2-(4,4-difluoroazepan-1-yl)-6-methylpyridine-3-carboxamide] was tested. Which IC50 did it give?
A: 35 nM

Q: With `O=C(Nc1cc[nH]c(=O)c1)c1cc(Cl)c(C2CC2)nc1N1CCCC(F)(F)CC1` [Example 27, 5-chloro-6-cyclopropyl-2-(4,4-difluoroazepan-1-yl)-N-(2-oxo-1,2-dihydropyridin-4-yl)nicotinamide] as the molecule, how does the IC50 read?
A: 31 nM

Q: For `CS(=O)(=O)n1ncc(NC(=O)c2cc(C(F)(F)F)cnc2N2CCCC(F)(F)CC2)c1C1CC1` [Example 37, N-[5-cyclopropyl-1-(methylsulfonyl)-1H-pyrazol-4-yl]-2-(4,4-difluoroazepan-1-yl)-5-(trifluoromethyl)pyridin-3-carboxamide], which IC50 is on record?
A: 1250 nM

Q: With `NS(=O)(=O)c1cc(NC(=O)c2ccc(C3CCC3)nc2N2CCCC(F)(F)CC2)ccn1` [Example 24, 6-cyclobutyl-2-(4,4-difluoroazepan-1-yl)-N-(2-sulfamoylpyridin-4-yl)nicotinamide] as the molecule, how does the IC50 read?
A: 2.1 nM

Q: With `NS(=O)(=O)c1cc(NC(=O)c2cc(C(F)(F)F)cnc2N2CC3CCC3(C(F)(F)F)C2)ccn1` (single isomer, unassigned) [Example 59, N-(2-sulfamoyl-4-pyridyl)-5-(trifluoromethyl)-2-[(1R,5R or 1S,5S)-1-(trifluoromethyl)-3-azabicyclo[3.2.0]heptan-3-yl]pyridine-3-carboxamide] as the molecule, how does the IC50 read?
A: 116 nM

Q: For `CC1(C)CN(c2ncc(C(F)(F)F)cc2C(=O)Nc2ccnc(S(N)(=O)=O)c2)CCO1` [Example 88, 2-(2,2-dimethylmorpholin-4-yl)-N-(2-sulfamoyl-4-pyridyl)-5-(trifluoromethyl)pyridine-3-carboxamide], which IC50 is on record?
A: 275 nM

Q: Which IC50 does the source give for `O=C(O)c1cc(NC(=O)c2cc(C(F)(F)F)cnc2N2CCC(F)(F)CC2)ccn1` [Example 4, 4-(2-(4,4-difluoropiperidin-1-yl)-5-(trifluoromethyl)nicotinamido)picolinic acid] here?
A: 5430 nM

Q: Which IC50 does the source give for `Cc1nc(C2CCC(F)(F)CC2)c(C(=O)Nc2ccnc(S(N)(=O)=O)c2)c(C)c1Cl` [Example 218, 5-chloro-2-(4,4-difluorocyclohexyl)-4,6-dimethyl-N-(2-sulfamoylpyridin-4-yl)nicotinamide] here?
A: 2.4 nM

Q: Which IC50 does the source give for `Cc1ccc(C(=O)Nc2cncc(S(N)(=O)=O)c2)c(N2CCC(F)(F)CC2)n1` [Example 9, 2-(4,4-difluoro-1-piperidyl)-6-methyl-N-(5-sulfamoyl-3-pyridyl)pyridine-3-carboxamide] here?
A: 816 nM

Q: For `N#CC1CCN(c2ncc(C(F)(F)F)cc2C(=O)Nc2ccnc(S(N)(=O)=O)c2)C1` (single isomer, unassigned) [Example 129, (S or R)-2-(3-cyanopyrrolidin-1-yl)-N-(2-sulfamoylpyridin-4-yl)-5-(trifluoromethyl)nicotinamide], which IC50 is on record?
A: 753 nM

Q: With `NS(=O)(=O)c1cc(NC(=O)c2cc(C(F)(F)F)cnc2N2CCCCC2c2ccc(F)cc2)ccn1` (centres unmarked) [Example 95, 2-[2-(4-fluorophenyl)-1-piperidyl]-N-(2-sulfamoyl-4-pyridyl)-5-(trifluoromethyl)pyridine-3-carboxamide] as the molecule, how does the IC50 read?
A: 1420 nM

Q: For `CC1(O)CCCN(c2ncc(C(F)(F)F)cc2C(=O)Nc2ccnc(S(N)(=O)=O)c2)C1` (centres unmarked) [Example 112, 2-(3-hydroxy-3-methyl-1-piperidyl)-N-(2-sulfamoyl-4-pyridyl)-5-(trifluoromethyl)pyridine-3-carboxamide], which IC50 is on record?
A: 8410 nM

Q: For `NS(=O)(=O)c1cc(NC(=O)c2cc(C3CC3)c(OCC(F)(F)F)nc2N2CCC(F)(F)CC2)ccn1` [Example 20, 5-cyclopropyl-2-(4,4-difluoropiperidin-1-yl)-N-(2-sulfamoylpyridin-4-yl)-6-(2,2,2-trifluoroethoxy)nicotinamide], which IC50 is on record?
A: 67 nM

Q: `C[C@H]1CN(c2ncc(C(F)(F)F)cc2C(=O)Nc2ccnc(S(N)(=O)=O)c2)CCC1(F)F` (single isomer, unassigned) [Example 47] was tested. Which IC50 did it give?
A: 3.9 nM

Q: How did the IC50 turn out when `CS(=O)(=O)n1cc(NC(=O)c2cc(C(F)(F)F)cnc2N2CCCC(F)(F)CC2)c2cccnc21` [Example 30, 2-(4,4-difluoroazepan-1-yl)-N-[1-(methylsulfonyl)-1H-pyrrolo[2,3-b]pyridin-3-yl]-5-(trifluoromethyl)pyridine-3-carboxamide] was run?
A: 4 nM

Q: For `NS(=O)(=O)c1cc(NC(=O)c2cc(OC(F)F)cnc2N2CCCC(F)(F)CC2)ccn1` [Example 171, 2-(4,4-difluoroazepan-1-yl)-5-(difluoromethoxy)-N-(2-sulfamoylpyridin-4-yl)nicotinamide], which IC50 is on record?
A: 9.2 nM

Q: For `COc1nc(N2CCCC(F)(F)CC2)c(C(=O)Nc2ccnc(S(=O)(=O)NC(C)(C)C)c2)cc1Cl` [Example 42, N-[2-(tert-butylsulfamoyl)pyridin-4-yl]-5-chloro-2-(4,4-difluoroazepan-1-yl)-6-methoxypyridine-3-carboxamide], which IC50 is on record?
A: 341 nM

Q: For `NS(=O)(=O)c1cc(NC(=O)c2cccnc2N2CCC(F)(F)CC2)ccn1` [Example 26, 2-(4,4-difluoropiperidin-1-yl)-N-(2-sulfamoylpyridin-4-yl)nicotinamide], which IC50 is on record?
A: 1860 nM

Q: With `Cc1nc(N2CCOC(C(F)F)C2)c(C(=O)Nc2ccnc(S(N)(=O)=O)c2)cc1Cl` (single isomer, unassigned) [Example 124, (S or R)-5-chloro-2-(2-(difluoromethyl)morpholino)-6-methyl-N-(2-sulfamoylpyridin-4-yl)nicotinamide] as the molecule, how does the IC50 read?
A: 50 nM

Q: For `CC1CCCN(c2ncc(C(F)(F)F)cc2C(=O)Nc2ccnc(S(N)(=O)=O)c2)C1` (single isomer, unassigned) [Example 56, (S or R)-2-(3-methylpiperidin-1-yl)-N-(2-sulfamoylpyridin-4-yl)-5-(trifluoromethyl)nicotinamide], which IC50 is on record?
A: 9.1 nM

Q: `CC1CN(c2nc(C(F)(F)F)c(Cl)cc2C(=O)Nc2ccnc(S(N)(=O)=O)c2)CCC1(F)F` (single isomer, unassigned) [Example 164, (S or R)-5-chloro-2-(4,4-difluoro-3-methylpiperidin-1-yl)-N-(2-sulfamoylpyridin-4-yl)-6-(trifluoromethyl)nicotinamide] was tested. Which IC50 did it give?
A: 3.3 nM

Q: For `NS(=O)(=O)c1cc(NC(=O)c2cc(C(F)(F)F)cnc2N2CCN(CC(F)(F)F)CC2)ccn1` [Example 100, N-(2-sulfamoyl-4-pyridyl)-2-[4-(2,2,2-trifluoroethyl)piperazin-1-yl]-5-(trifluoromethyl)pyridine-3-carboxamide], which IC50 is on record?
A: 4630 nM

Q: How did the IC50 turn out when `NS(=O)(=O)c1cc(NC(=O)c2cc(C(F)(F)F)cnc2N2CCOC(c3ccc(C(F)(F)F)cc3)C2)ccn1` (centres unmarked) [Example 91, N-(2-sulfamoyl-4-pyridyl)-5-(trifluoromethyl)-2-[2-[4-(trifluoromethyl)phenyl]morpholin-4-yl]pyridine-3-carboxamide] was run?
A: 616 nM

Q: How did the IC50 turn out when `NS(=O)(=O)c1cc(NC(=O)c2cc(C(F)(F)F)cnc2N2CCCC(C(F)(F)F)C2)ccn1` (centres unmarked) [Example 80, N-(2-sulfamoyl-4-pyridyl)-5-(trifluoromethyl)-2-[3-(trifluoromethyl)-1-piperidyl]pyridine-3-carboxamide] was run?
A: 31 nM
